This is an account of results in patent publication US20250236614A1, “BICYCLIC TETRAHYDROAZEPINE DERIVATIVES” (Hoffmann-La Roche Inc., priority 2022, published 2025).

Each structure is given as a SMILES string.

Experiment [1] concerns the target T1, hDGKalpha(1-735)-N-His (DGKA) (Homo sapiens, UniProt P23743).
T1 construct: hDGKalpha(1-735)-N-His; His (N)
Kind of experiment: In vitro DGK inhibition assay (ADP-Glo, in house), DGK alpha. Type of experiment: biochemical. Particulars: isomer A; 4 nM DGK α, 25 μM ATP, 125 μM DLG in liposomes, 1 hour reaction; read-out: DGKalpha ADP Glo assay IC50. How it is done:
(§1) DGK α and ζ kinase use ATP to phosphorylate the substrate 1,2-dilauroyl-sn-glycerol (DLG, incorporated in the liposomes). ATP is converted to ADP as a result of this enzymatic reaction.
(§2) After the kinase reaction, an ATP-depletion reagent is added to terminate the kinase reaction and deplete any remaining ATP, leaving only ADP. Second, a detection reagent is added to simultaneously convert ADP to ATP and allow the newly synthesized ATP to be converted to light using a coupled luciferase/luciferin reaction.
(§3) Full length DGKA and Z were expressed in Sf21 insect cells by infecting the cells with the baculovirus stock at MOI of 2. Purification of both enzymes was performed as previously described by Takahashi et al., PeerJ, 2018 (Takahashi, D.; Sakane, F. Expression and purification of human diacylglycerolkinase alpha from baculovirus-infected insect cells for structural studies. PeerJ2018, 6, No. e5449).
(§4) A concentrated liposome solution was prepared in assay buffer without DTT and BSA: 2 mM of DLG in 21 mM of total liposome (2 mM DLG/8 mM PS/11 mM PC). The reaction mixtures contain the assay buffer with a final DLG concentration of 125 μM ATP concentrations of 25 μM (for DGKA assay) or 50 μM (for DGKZ assay). The reactions were started by addition of DGK α and ζ kinases at 4 nM and 2 nM final concentrations, respectively. After 1 hour reaction, the amount of ADP formed was detected with the ADP-Glo kinase assay (Promega) according to the manufacturer instructions. Compounds were added in 11I-points dose response, starting at 10 mM, 1:3 dilutions, with a final DMSO concentration of […]. The multidrop combi was used as a liquid handler and luminescence was read with 0.5 s by the envision reader (PE).
A general note: In ADP-Glo the light output rises with the ADP produced.

The target in experiment [2] is T2, hDGKzeta(1-928)-N-His (DGKZ) (Homo sapiens, UniProt Q13574).
T2 construct: hDGKzeta(1-928)-N-His; His (N)
T2 sequence (Q13574 whole entry): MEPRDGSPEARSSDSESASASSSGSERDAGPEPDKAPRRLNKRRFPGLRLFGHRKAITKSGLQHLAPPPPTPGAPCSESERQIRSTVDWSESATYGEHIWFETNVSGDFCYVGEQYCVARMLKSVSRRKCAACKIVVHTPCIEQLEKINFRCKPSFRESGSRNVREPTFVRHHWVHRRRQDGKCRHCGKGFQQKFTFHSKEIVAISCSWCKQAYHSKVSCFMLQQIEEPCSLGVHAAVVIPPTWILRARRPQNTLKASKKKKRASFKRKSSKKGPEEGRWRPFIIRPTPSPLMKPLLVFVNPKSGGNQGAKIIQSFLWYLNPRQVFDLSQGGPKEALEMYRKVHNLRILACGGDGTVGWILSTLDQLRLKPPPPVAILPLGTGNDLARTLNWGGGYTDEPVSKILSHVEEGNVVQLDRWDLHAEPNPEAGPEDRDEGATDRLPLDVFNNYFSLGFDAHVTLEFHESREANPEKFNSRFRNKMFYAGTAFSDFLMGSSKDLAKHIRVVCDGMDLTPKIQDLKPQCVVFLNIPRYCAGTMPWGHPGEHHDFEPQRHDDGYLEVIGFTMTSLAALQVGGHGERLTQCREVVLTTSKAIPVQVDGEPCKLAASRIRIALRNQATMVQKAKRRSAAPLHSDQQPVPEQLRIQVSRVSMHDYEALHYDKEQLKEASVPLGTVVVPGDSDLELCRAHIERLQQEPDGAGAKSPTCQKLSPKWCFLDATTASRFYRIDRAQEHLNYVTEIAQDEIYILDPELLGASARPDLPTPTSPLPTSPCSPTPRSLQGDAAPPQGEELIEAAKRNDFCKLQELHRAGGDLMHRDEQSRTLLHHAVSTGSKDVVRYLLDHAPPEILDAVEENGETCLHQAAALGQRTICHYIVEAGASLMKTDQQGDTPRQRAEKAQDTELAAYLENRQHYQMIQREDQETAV
Description: In vitro DGK inhibition assay (ADP-Glo, in house), DGK zeta. Particulars: isomer A; 2 nM DGK ζ, 50 μM ATP, 125 μM DLG in liposomes, 1 hour reaction; read-out: DGKzeta ADP Glo assay IC50. The experiment is classed as biochemical. How it is done:
as §1, §2, §3, §4

The target in experiment [3] is DGK α kinase (Homo sapiens, UniProt P23743). Kind of experiment: In vitro DGK inhibition assay (ADP Glo) run by Reaction Biology Corp., DGK alpha. The experiment is classed as biochemical. To be noted: isomer A, 2 nM kinase, 50 μM ATP, 500 uM DLG, 10-dose, 3-fold dilution starting at 1 μM, read-out: DGKalpha IC50. The procedure:
(§5) DGK α and ζ kinase use ATP to phosphorylate the substrate 1,2-dilauroyl-sn-glycerol (DLG). ATP is converted to ADP as a result of this enzymatic reaction.
as §2
(§6) DGK α and ζ kinase ADP Glo assays were ran by Reaction Biology Corp., 1 Great Valley Parkway, Suite 2, Malverm, 19355, PA, USA. Information provided by the service provider are the following: DGK α and ζ kinases were used at 2 nM final concentration. Reactions were carried out at 50 μM ATP. 500 uM of the substrate DLG (Dilauroyl-sn-glycerol) was used. Compounds were received at 10 mM DMSO stock solution and were tested in 10-dose IC50 duplicate with 3-fold serial dilution starting at 1 μM. A control compound, Calphostin C, was tested in 10-dose IC50 with 3-fold serial dilution starting at 100 μM.

The target in experiment [4] is DGK ζ kinase (Homo sapiens, UniProt Q13574). Kind of experiment: In vitro DGK inhibition assay (ADP Glo) run by Reaction Biology Corp., DGK zeta. Type of experiment: biochemical. To be noted: isomer A, 2 nM kinase, 50 μM ATP, 500 uM DLG, 10-dose, 3-fold dilution starting at 1 μM, read-out: DGKzeta IC50. How it is done:
as §5, §2, §6

Experiment [5] has as its system primary human T-cells. Description: T-cell proliferation assay (CellTiter-Glo). Type of experiment: cell-based. Particulars: Homo sapiens, T-cell, 120 h, isomer A; for EC50: CD3 antibody-stimulated T-cells, CellTiter-Glo after 5 days, read-out: Tcell Proliferation CD3 EC50; for Emax: CD3 condition, 5 days, 20 μM reference compound A1 = 100%, DMSO neutral control, read-out: Emax proliferation (% activation). How it is done: Expanded primary human T-cells are thawed and cultured in RPMI 1640 (Gibco, #61870-010)+5% human serum (HS, Sigma, #H3667)+1 mM Sodium Pyruvate (Gibco, #11360-039)+50 μM 2-mercaptoethanol (Gibco, #31350-010) and 1× Pen-Strep (Life Technologies, #15140122) medium at density of 2 Mio/ml for 3 hours in 5% CO2, 37° C. and 95% humidity. For coating of plates, PBS++ only or PBS++ with CD3 antibody (concentration depending on donor and determined by CD3 titrations) is added 100 μl/well to Poly-D Lysine coated 96-well plates. Plates are sealed and incubated at room temperature for 3 hours on a table-top rocking platform. After incubation, plates are washed once with PBS−− and filled with 40 μl/well culture medium only. Compounds are then added (see next section) to medium only plates. After 3 hours of culturing the T-cells, cells are filtered through a cell strainer (Miltenyi Biotech, #130-041-407), counted again and concentration is adjusted to 1.25 Mio/ml.
Cells are then seeded 80 μl/well to the 40 μl/well including dispensed compounds according to plate layout. By adding cells, compounds are further diluted 1:3, and resulting in 100k cells/120 μl/well. After 48 hours 40 μl of supernatant is collected carefully from the top while not disturbing the cells. Cells are assessed for proliferation 5 days later by measuring […] using CellTiterGlo (Promega).
Compounds were added in a 5 or 6 pt dose response with the Tecan D300e Digital Dispenser, all conditions 3 times more concentrated than the end-concentration, since cells are added afterwards (80 μl cells to 40 μl prepared medium with treatment). The DR was starting at 20 μM or 10 μM final top concentration and a dilution factor of 3.333. The positive control was the reference compound A1 that was added in a dose response as well, additionally to 3 wells of only 20 μM representing the positive stimulator control. All wells were normalized with DMSO to a final concentration of 0.6% (0.2% end-concentration).
After 5 days, for detection of ATP which is directly proportional to the number of cells present per well, the CellTiter-Glo® 2.0 Reagent is used. After visual control for toxicity or precipitations of the tested compounds, the plates are equilibrated to room temperature for 45 minutes. CellTiter-Glo® 2.0 Reagent is equilibrated to room temperature as well. After equilibration, an equal amount of CellTiter-Glo reagent is added to the cells (80 μl/well) with an electronic multichannel pipette. Plates are placed on a rocking platform for 15 minutes at room temperature. After incubation, the bottom of the plates is sealed with backing tape. Luminescence is measured with PHERAstar FSX (interval time 0.5 sec, gain 3000, focal height 15 mm) and exported as CSV file for analysis in Genedata screener.
CD3 and PBS plates were analysed separately in Genedata Screener using Roche Normalization PCT_POS_CTRL with DMSO set as Neutral Control and 20 μM of the reference compound A1 set as Stimulator Control/100%.
For CD3 conditions EC50 and Emax of the fitted sigmoidal curve were reported. If no curve could be fitted, the EC50 was reported as blank field and the Emax was based on individual data points. […] Compounds which activate unstimulated cells (see IL2 measurements) or compounds which negatively affected viability were flagged.
Background: Cellular ATP, detected with luciferase, serves as a proxy for viable cell number.

T1 sequence (P23743 whole entry): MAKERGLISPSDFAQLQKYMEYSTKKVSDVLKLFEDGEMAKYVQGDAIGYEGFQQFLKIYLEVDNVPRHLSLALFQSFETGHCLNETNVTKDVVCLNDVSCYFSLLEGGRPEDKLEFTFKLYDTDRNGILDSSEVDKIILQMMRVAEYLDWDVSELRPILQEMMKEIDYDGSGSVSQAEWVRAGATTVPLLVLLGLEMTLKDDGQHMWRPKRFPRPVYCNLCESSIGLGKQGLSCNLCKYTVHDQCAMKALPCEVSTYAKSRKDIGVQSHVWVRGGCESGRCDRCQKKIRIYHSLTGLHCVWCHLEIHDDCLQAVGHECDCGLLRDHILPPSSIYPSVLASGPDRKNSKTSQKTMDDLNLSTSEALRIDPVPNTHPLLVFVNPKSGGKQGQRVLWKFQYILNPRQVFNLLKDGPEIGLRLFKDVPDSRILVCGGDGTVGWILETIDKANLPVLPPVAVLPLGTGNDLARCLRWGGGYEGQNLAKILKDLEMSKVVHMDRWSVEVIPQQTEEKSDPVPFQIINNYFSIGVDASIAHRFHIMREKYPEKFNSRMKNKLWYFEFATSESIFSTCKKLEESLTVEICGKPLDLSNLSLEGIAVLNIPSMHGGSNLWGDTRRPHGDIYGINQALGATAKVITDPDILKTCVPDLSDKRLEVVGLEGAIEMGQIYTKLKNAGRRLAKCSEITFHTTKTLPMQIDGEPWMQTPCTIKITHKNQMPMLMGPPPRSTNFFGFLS
Sequence of DGK α kinase (P23743 whole entry): as above
Sequence of DGK ζ kinase (Q13574 whole entry): as the sequence (Q13574 whole entry) above

The IC50 is the concentration at which inhibition is half-maximal. For the molecule `CC(C)(C#N)c1nnc(-c2cc3c(cc2F)C(F)(F)C[C@@H](N)C(=O)N3Cc2ccc(Oc3ccccc3)cc2)o1` (single isomer, unassigned) [Example 11], the IC50 came out at 3310 nM in experiment [1], 1250 nM in experiment [2], 6.9 nM in experiment [3] and 20.6 nM in experiment [4]. Moreover, the EC50 in experiment [5] worked out at 192 nM. Moreover, the Emax in experiment [5] amounted to 88%.
For `CC(C)(C)c1cncc(-c2cc3c(cc2F)C(F)(F)C[C@@H](N)C(=O)N3Cc2ccc(Cl)cc2)c1` (single isomer, unassigned) [Example 18], the IC50 in experiment [1] is more than 62500 nM. In addition, the IC50 in experiment [2] is more than 62500 nM. Further, in experiment [5], the EC50 turned out to be 666 nM and the Emax is 52%.
In the case of `CC(C)(C#N)c1nnc(-c2cc3c(cc2F)C(F)(F)C[C@@H](N)C(=O)N3Cc2ccc(-n3cc(OC(F)(F)F)cn3)cc2)o1` (single isomer, unassigned) [Example 43], in experiment [5], the EC50 worked out at 23.4 nM and the Emax was 105%.
The like results for `CC(C)(C#N)c1nnc(-c2cc3c(cc2F)C(F)(F)C[C@@H](N)C(=O)N3Cc2ccc(-n3cc(C(F)(F)F)cn3)cc2F)o1` (single isomer, unassigned) [Example 44] were, in that order, 1460 nM and 126%.
For `CC(C)(C#N)c1nnc(-c2cc3c(cc2F)C(F)(F)C[C@@H](N)C(=O)N3Cc2ccc(-n3cc(C(F)(F)F)cn3)nc2F)o1` (single isomer, unassigned) [Example 45], in experiment [5], the EC50 is 2940 nM and the Emax came out at 67%.
On to `CC(C)(C#N)c1nnc(-c2cc3c(cc2F)C(F)(F)C[C@@H](N)C(=O)N3Cc2ccc(-n3cc(C(F)(F)F)cn3)nc2)o1` (single isomer, unassigned) [Example 46], for which the IC50 in experiment [1] came to 17800 nM; in experiment [2] it was 6750 nM. Besides, in experiment [5], the EC50 turned out to be 542 nM. In addition, the Emax in experiment [5] turned out to be 87%.
The like results for `CC(C)(C#N)c1nnc(-c2cc3c(cc2F)C(F)(F)C[C@@H](N)C(=O)N3Cc2ccc(-n3cc(C(F)(F)F)cn3)c(F)c2)o1` (single isomer, unassigned) [Example 47] were, in that order, 23700 nM, 2990 nM, 496 nM and 98%.
Turning to `CC(C)(C#N)c1nnc(-c2cc3c(cc2F)C(F)(F)C[C@@H](N)C(=O)N3Cc2ccc(-c3cnn(C(F)(F)F)c3)cc2)o1` (single isomer, unassigned) [Example 48], the IC50 in experiment [1] was found to be 1510 nM. The half-inhibitory concentration (IC50) in experiment [2] is 4920 nM. Further, in experiment [5], the EC50 turned out to be 163 nM and the Emax worked out at 171%.
